# Data: patent publication US11760775B2, “Steroids and protein-conjugates thereof” (Regeneron Pharmaceuticals, Inc., priority 2016, dated 2023)
# “And” between values parts separate entries of the source, which are not always exact repeats. Identical values can stand only once.
# Tests used:
# [1] = Pharmacokinetics of 4b and 6-I in mice (blood concentration-time); type: in vivo, C57BL/6j mice; design: Tmax: unit not given here; conditions: IP, 1 mg/Kg in male C57BL/6 mice, Mean
# [2] = test system: GR activation in 293/PRLR/GRE-Luc cells (HEK293/9xUAS-Luc2P/pBind-GR/PRLR-HA high cells); experiment: GR co-activator luciferase reporter cell based assay in 293/PRLR/GRE-Luc cells; design: species or system human; conditions: for EC50: Homo sapiens, HEK293, read-out: HEK293/9xUAS-Luc2P/pBind-GR/PRLR-HA high cells EC50; for HEK293/9xUAS-Luc2P/pBind-GR/PRLR-HA high cells activation relative to Budesonide: fold activation vs Budesonide
# Outline: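 EC50 was derived from a 10-point, four-parameter logistic fit of One-Glo luminescence. The reporter is driven by Gal4UAS through GR ligand-binding domain fused to Gal4 DBD in PRLR-expressing 293 cells, after ADC internalization or free steroid exposure. Activation below 10% of the free-payload maximum counts as minimal.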
# [3] = test system: LPS-induced cytokine release (TNF-α); experiment: Mouse model of LPS induced cytokine release (TNF-α in plasma); type: in vivo, C57BL/6j mice; conditions: for TNF-a: plasma 2 hr post LPS challenge, individual mice
# [4] = molecular target: Glucocorticoid Receptor (GR) (Homo sapiens (Human), UniProt P04150); experiment: LanthaScreen TR-FRET GR Competitive Binding Assay (cell free)
# Glucocorticoid Receptor (GR), sequence (P04150 524-758): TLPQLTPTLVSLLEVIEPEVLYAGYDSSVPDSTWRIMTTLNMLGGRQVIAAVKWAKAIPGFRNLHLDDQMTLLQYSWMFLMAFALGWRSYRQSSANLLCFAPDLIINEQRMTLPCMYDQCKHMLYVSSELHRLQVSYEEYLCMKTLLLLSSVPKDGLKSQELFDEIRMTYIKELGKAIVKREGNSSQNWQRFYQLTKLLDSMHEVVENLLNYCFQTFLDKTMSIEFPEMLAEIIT
# [5] = Solubility in water and DMSO/water
# [6] = molecular target: human liver cathepsin B (Homo sapiens (Human), UniProt P07858); experiment: Linker-payload cleavage in Cathepsin B assay; type: biochemical; conditions: for Conversion rate (%): Mean
# Protocol: The linker-payloads were tested in a Cathepsin B assay. After 4 hr incubation in Cathepsin B (CapB) with and without CapB inhibitor ([…]), both linker-payloads and free payload were evaluated using LC-MS/MS.
# The CapB assay procedure follows: Linker-payload stock solution (10 mM in DMSO) was spiked into incubation buffer (100 mM NaOAc, 10 mM dithiothreitol, pH5) to obtain a 50 μM substrate solution. 4 μL of 0.47 μg/μL human liver cathepsin B (Athens Research & Technology, Athens, GA) in 50 mM NaOAc, 1 mM EDTA, pH 5 was added into 196 μL of 50 μM substrate solution. The reaction mixture was incubated at 37° C. for 4 hr. Then 5 μL of acetic acid and 150 μL of acetonitrile (containing osalmid as internal standard) were added to 50/Th of reaction mixture aliquots. After vortexing, the quenched samples were frozen in a −70° C. deep freezer, followed by thawing and centrifugation at 14,000 rpm.
# The CapB assay experiment included the following procedure. • 1. Preheat assay buffer: 0.1 M NaOAc/0.01 M DTT (pH 5.0) • 2. Spiking solutions for test compounds: 25 μM Spiking solutions for test compounds: Add […], of 5 mM stock solution into 398 μL of 0.1 M NaOAc/0.01 M DTT buffer (pH 5.0). • 3. Prepare 0.47m/μL Cathepsin B in 50 mM NaOAc/1 mM EDTA (pH 5.0). Put on ice. • 4. Without CA074 samples: Add […], of 0.47m/μL Cathepsin B into 196 μL of 25 μM Spiking solutions (from step 2), incubate the tubes at 37° C. • 5. With CA074 samples: Add 4 μL of 0.47m/μL Cathepsin B with 4 μL of 10 mM Inhibitor (CA074) into 196 μL of 25 μM Spiking solutions (from step 2), incubate the tubes at 37° C. • 6. After 4 hours, Aliquots of 5 μL (with CA074 and without CA074) were taken for enzyme activity test (step 15-17). Meanwhile, Aliquots of 50 μL were taken at the time point (4 h), adding 5 μL of acetic acid, and then add 150 μL of ACN (IS) to stop the reaction. • 7. After quenching, shake the plate and centrifuge them at 14000 rpm. • 8. Transfer 50 μL of the supernatant from each well into a 96-well sample plate containing 50 μL of ultra pure water (Millipore, ZMQS50F01) for LC/MS analysis.
# The CapB assay experiment included the reference compounds and the following procedure. • 9. Preheat assay buffer: 100 mM Na/K phosphate, pH6.0, with 1.33 mM EDTA and 2 mM DTT. • 10. Prepare 0.024m/μL Cathepsin B: Add […] of 0.47 μg/μL Cathepsin B stock into 19 μL of assay buffer (from step 11). • 11. Add 2 μL of 0.024m/μL Cathepsin B (from step 12) to a opaque 96-well plate. • 12. Add 96 μL of assay buffer to each sample. • 13. Add 2 μL of the 10 mM substrate Z—RR-MNA(200 μM final concentration). • For negative control (with inhibitor), add 2 μL of 10 mM Inhibitor (CA074). • 14. Immediately read the samples in a kinetic mode at excitation of 340 nm/emission of 425 nm (Read the plate every 30 Second for 3 min).
# Stability of Cathepsin B in incubation samples: • 15. Take Take 5 μL of incubation samples into 93 μL of assay buffer (from step 11), and then add 2 μL of 10 mM substrate (Z—RR-MNA). • 16. Incubate the samples at 37° C. for 2 min. • 17. Read the samples at excitation of 340 nm/emission of 425 nm.
# [7] = with CA074 (Cathepsin B inhibitor), 4 hr incubation
# [8] = without CA074, 4 hr incubation with Cathepsin B
smiles,measurement,setting,value
"CCCC1O[C@@H]2C[C@H]3[C@@H]4C[C@H](F)C5=CC(=O)C=C[C@]5(C)[C@@]4(F)[C@@H](O)C[C@]3(C)[C@]2(C(=O)COc2ccc(N)cc2)O1 (stereo partly drawn) [Compound 6-I, (1S,2S,4R,8S,9S,11S,12R,13S,19S)-8-[2-(4-Aminophenoxy)acetyl]-12,19-difluoro-11-hydroxy-9,13-dimethyl-6-propyl-5,7-dioxapentacyclo[10.8.0.0^2,90.0^4,80.0^13,118]icosa-14,17-dien-16-one]",Tmax,[1],0.250
same,AUC(0-inf),"[1]; mouse, in vivo, read-out: AUCINF",113 ng·h/mL
same,AUC(0-t),"[1]; mouse, in vivo, read-out: AUClast",107 ng·h/mL
same,Cmax,"[1]; mouse, in vivo, read-out: Cmax",44.8 ng/mL
same,half-life,"[1]; mouse, in vivo, read-out: Terminal t1/2 (converted)",1.91 h
same,EC50,[2],< 10 nM
same,HEK293/9xUAS-Luc2P/pBind-GR/PRLR-HA high cells activation relative to Budesonide,[2],Full
same,Inhibition of TNF-α production,"[3]; 5 mpk ip before LPS challenge, plasma at 2 hr time point",time dependent inhibition
same,TNF-a,[3]; 5MPK ip (−2 h) prior to LPS,110.6 pg/mL and 30.8 pg/mL and 240.8 pg/mL
same,TNF-a,[3]; 5MPK ip (−24 h) prior to LPS,23.1 pg/mL and 997.3 pg/mL and 55.4 pg/mL
same,TNF-a,[3]; 5MPK ip (−48 h) prior to LPS,1280.1 pg/mL and 1149.4 pg/mL and 750.0 pg/mL
"CCC[C@H]1O[C@@H]2C[C@H]3[C@@H]4C[C@H](F)C5=CC(=O)C=C[C@]5(C)[C@@]4(F)[C@@H](O)C[C@]3(C)[C@]2(C(=O)COc2ccc(N)cc2)O1 [Compound S-6-I, (1S,2S,4R,6S,8S,9S,11S,12R,13S,19S)-8-[2-(4-Aminophenoxy)acetyl]-12,19-difluoro-11-hydroxy-9,13-dimethyl-6-propyl-5,7-dioxapentacyclo[10.8.0.0^2,90.0^4,80.0^13,18]icosa-14,17-dien-16-one]",IC50,[4],< 10 nM
same,EC50,[2],< 10 nM
same,HEK293/9xUAS-Luc2P/pBind-GR/PRLR-HA high cells activation relative to Budesonide,[2],Full
CCC[C@@H]1O[C@@H]2C[C@H]3[C@@H]4CCC5=CC(=O)C=C[C@]5(C)[C@H]4[C@@H](O)C[C@]3(C)[C@]2(C(=O)COc2ccc(NC(=O)[C@H](C)NC(=O)[C@@H](NC(=O)CCOCCOCCOCCOCCNC(=O)CCC(=O)N3Cc4ccccc4C#Cc4ccccc43)C(C)C)cc2)O1 [LP7],solubility,"[5]; 20% DMSO in water, aqueous with cosolvent or surfactant or cyclodextrin",60 µg/mL
same,solubility,"[5]; 30% DMSO in water, aqueous with cosolvent or surfactant or cyclodextrin",70 µg/mL
same,solubility,[5]; water,< 100 µg/mL
CCC[C@@H]1O[C@@H]2C[C@H]3[C@@H]4CCC5=CC(=O)C=C[C@]5(C)[C@H]4[C@@H](O)C[C@]3(C)[C@]2(C(=O)COc2ccc(NC(=O)[C@H](C)NC(=O)[C@@H](NC(=O)[C@@H](CCCCNC(=O)COC3CCCCCc4c3nnn4CC3OC4OC5C(CO)OC(OC6C(CO)OC(OC7C(CO)OC(OC8C(CO)OC(OC9C(CO)OC(OC3C(O)C4O)C(O)C9O)C(O)C8O)C(O)C7O)C(O)C6O)C(O)C5O)NC(=O)CCOCCOCCOCCOCCNC(=O)CCC(=O)N3Cc4ccccc4C#Cc4ccccc43)C(C)C)cc2)O1 (stereo partly drawn) [LP16],solubility,"[5]; 10% DMSO in water, aqueous with cosolvent or surfactant or cyclodextrin",100 µg/mL
CCCC1O[C@@H]2C[C@H]3[C@@H]4C[C@H](F)C5=CC(=O)C=C[C@]5(C)[C@@]4(F)[C@@H](O)C[C@]3(C)[C@]2(C(=O)CNC(=O)OCc2ccc(NC(=O)[C@H](CCCNC(N)=O)NC(=O)[C@@H](NC(=O)[C@@H](N)CCCCNC(=O)COC3C#CCCCCC3)C(C)C)cc2)O1 (stereo partly drawn) [LP101],Conversion rate (%),[6]; [7],<1.00%
same,Conversion rate (%),[6]; [8],48.20%
CCCC1O[C@@H]2C[C@H]3[C@@H]4C[C@H](F)C5=CC(=O)C=C[C@]5(C)[C@@]4(F)[C@@H](O)C[C@]3(C)[C@]2(C(=O)COc2ccc(NC(=O)[C@H](C)NC(=O)[C@@H](NC(=O)[C@@H](N)CCCCNC(=O)COC3C#CCCCCC3)C(C)C)cc2)O1 (stereo partly drawn) [LP102],Conversion rate (%),[6]; [7],<1.00%
same,Conversion rate (%),[6]; [8],22.72%
CCCC1O[C@@H]2C[C@H]3[C@@H]4C[C@H](F)C5=CC(=O)C=C[C@]5(C)[C@@]4(F)[C@@H](O)C[C@]3(C)[C@]2(C(=O)COc2ccc(NC(=O)OCc3ccc(NC(=O)[C@H](CCCNC(N)=O)NC(=O)[C@@H](NC(=O)[C@@H](N)CCCCNC(=O)COC4C#CCCCCC4)C(C)C)cc3)cc2)O1 (stereo partly drawn) [LP103],Conversion rate (%),[6]; [7],<1.00%
same,Conversion rate (%),[6]; [8],29.0%
CCCC1O[C@@H]2C[C@H]3[C@@H]4C[C@H](F)C5=CC(=O)C=C[C@]5(C)[C@@]4(F)[C@@H](O)C[C@]3(C)[C@]2(C(=O)CNC(=O)OCc2ccc(NC(=O)[C@H](CCCNC(N)=O)NC(=O)[C@@H](NC(=O)[C@@H](CCCCNC(=O)COC3CCCCCc4c3nnn4CC3OC4OC5C(CO)OC(OC6C(CO)OC(OC7C(CO)OC(OC8C(CO)OC(OC9C(CO)OC(OC3C(O)C4O)C(O)C9O)C(O)C8O)C(O)C7O)C(O)C6O)C(O)C5O)NC(=O)CCOCCOCCOCCOCCNC(=O)CCC(=O)N3Cc4ccccc4C#Cc4ccccc43)C(C)C)cc2)O1 (stereo partly drawn) [LP104],Cleavage by Cathepsin B and payload release,"[6]; 4 hr incubation, LC-MS/MS",could be cleaved by CapB and released more payload (4b)
same,Conversion rate (%),[6]; [7],<1.00%
same,Conversion rate (%),[6]; [8],29.0%
CCCC1O[C@@H]2C[C@H]3[C@@H]4C[C@H](F)C5=CC(=O)C=C[C@]5(C)[C@@]4(F)[C@@H](O)C[C@]3(C)[C@]2(C(=O)CNC(=O)OCc2ccc(NC(=O)[C@H](CCCNC(N)=O)NC(=O)[C@@H](NC(=O)CCOCCOCCOCCOCCNC(=O)CCC(=O)N3Cc4ccccc4C#Cc4ccccc43)C(C)C)cc2)O1 (stereo partly drawn) [LP112],Conversion rate (%),[6]; [7],<1.00%
same,Conversion rate (%),[6]; [8],20.8%
CCCC1O[C@@H]2C[C@H]3[C@@H]4C[C@H](F)C5=CC(=O)C=C[C@]5(C)[C@@]4(F)[C@@H](O)C[C@]3(C)[C@]2(C(=O)COc2ccc(NC(=O)OCc3ccc(NC(=O)[C@H](CCCNC(N)=O)NC(=O)[C@@H](NC(=O)CCOCCOCCOCCOCCNC(=O)CCC(=O)N4Cc5ccccc5C#Cc5ccccc54)C(C)C)cc3)cc2)O1 (stereo partly drawn) [LP116],Conversion rate (%),[6]; [7],<1.00%
